Measurements published in article PMC10675840, “Structure-function analysis of ceTIR-1/hSARM1 explains the lack of Wallerian axonal degeneration in C. elegans” (Cell reports, 2023).
Positions count from the first letter of the chain named.

Columns and labels:
Test in all cases: HPLC NAD+ consumption, Michaelis-Menten fit
Type in all cases: biochemical
Conditions in all cases: […] C, […] min, pH […]
[1] = target: T1, ceTIR-1 (Caenorhabditis elegans, UniProt Q86DA5, D888E)
T1 construct: gene tir-1; near-intact ARM-SAM-SAM-TIR, residues 162-872 (HMD...QQR), N-terminal 6xHis + TEV site, HEK293F expression, mostly 9-mer ring, partly dissociated
T1 sequence (Q86DA5 216-926 D888E): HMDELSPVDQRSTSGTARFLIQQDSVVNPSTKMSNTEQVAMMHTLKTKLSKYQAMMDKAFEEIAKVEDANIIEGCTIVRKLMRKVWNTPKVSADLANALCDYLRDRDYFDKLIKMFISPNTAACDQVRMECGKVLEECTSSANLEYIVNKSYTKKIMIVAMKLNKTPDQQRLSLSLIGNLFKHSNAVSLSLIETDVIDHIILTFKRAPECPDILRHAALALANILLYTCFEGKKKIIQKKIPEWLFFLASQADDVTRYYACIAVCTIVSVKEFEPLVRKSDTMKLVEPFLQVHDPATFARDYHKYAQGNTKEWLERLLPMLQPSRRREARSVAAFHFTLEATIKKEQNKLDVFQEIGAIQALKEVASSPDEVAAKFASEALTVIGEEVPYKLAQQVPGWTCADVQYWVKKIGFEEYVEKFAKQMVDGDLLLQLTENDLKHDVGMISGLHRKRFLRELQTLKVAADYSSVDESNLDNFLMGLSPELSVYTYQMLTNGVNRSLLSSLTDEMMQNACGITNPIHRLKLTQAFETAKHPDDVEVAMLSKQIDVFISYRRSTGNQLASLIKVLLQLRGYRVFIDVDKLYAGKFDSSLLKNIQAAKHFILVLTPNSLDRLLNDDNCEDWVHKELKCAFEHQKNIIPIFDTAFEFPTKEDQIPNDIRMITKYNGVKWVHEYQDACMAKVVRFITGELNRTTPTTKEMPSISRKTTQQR

[2] = target: T2, ceTIR-1 (Caenorhabditis elegans, UniProt Q86DA5, F863W)
T2 construct: gene tir-1; near-intact ARM-SAM-SAM-TIR, residues 162-872 (HMD...QQR), N-terminal 6xHis + TEV site, HEK293F expression, mostly 9-mer ring, partly dissociated
T2 sequence (Q86DA5 216-926 F863W): T1 sequence (Q86DA5 216-926 D888E) with F648W, E673D

[3] = target: T3, ceTIR-1 (Caenorhabditis elegans, UniProt Q86DA5, R828K)
T3 construct: gene tir-1; near-intact ARM-SAM-SAM-TIR, residues 162-872 (HMD...QQR), N-terminal 6xHis + TEV site, HEK293F expression, mostly 9-mer ring, partly dissociated
T3 sequence (Q86DA5 216-926 R828K): T1 sequence (Q86DA5 216-926 D888E) with R613K, E673D

NC(=O)c1ccc[n+]([C@@H]2O[C@H](COP(=O)(O)OP(=O)(O)OC[C@H]3O[C@@H](n4cnc5c(N)ncnc54)[C@H](O)[C@@H]3O)[C@@H](O)[C@H]2O)c1 [NAD^+]
Km [1]: none of these substitutions had any significant effect on Km
Km [2]: none of these substitutions had any significant effect on Km
Km [3]: none of these substitutions had any significant effect on Km
